Data taken from article PMC7261172, “Peptides containing the PCNA interacting motif APIM bind to the β-clamp and inhibit bacterial growth and mutagenesis” (Nucleic Acids Research, 2020).
Converted amounts (≈) assume the structure as drawn.

Key:
[1] = system: S.aureus ATCC 29213; assay: microbe, parasite or virus in culture; type: cell-based, Staphylococcus aureus
Experimental: (§1) Briefly, bacterial suspension in Mueller-Hinton Broth was adjusted to 0.5 McFarland and diluted to 5 × 10^5 CFU/ml. The suspension (0.1 ml) was seeded in polypropylene microtiter plates (Greiner), 5 × 10^4 CFU/well. APIM-peptides were added as 10% of the total volume. Initial inoculums were quantified by seeding on agar for verification of the estimated CFU/mL. After 24 hours (h) incubation at 37°C, the microtiter plates were inspected for visible growth.
(§2) Determination of minimal inhibitory concentrations (MICs) for S. aureus was done at Statens Serum Institute, Copenhagen, Denmark.

[2] = system: S.aureus FDA486; assay: microbe, parasite or virus in culture; type: cell-based, Staphylococcus aureus; conditions: n = 3
Experimental: as §1, §2

[3] = biological target: β-clamp; conditions: read-out: KD for the β-clamp; cited from earlier work
Description: Next, we examined the direct interaction between the β-clamp and octamer peptides containing RWLVK and RALVK (i.e. without the cell penetrating part of the peptide) by SPR.

[4] = system: β-clamp; conditions: peptide:β-clamp 100:5 μM (RWLVK, RALVK octamers) or 50:20 μM (Pol III peptide); 298 K, pH 7.4
Experimental: All NMR spectra were recorded in a standard 5 mm NMR tube at 298 K in 20 mM NaH2PO4, 100 mM NaCl, pH 7.4, 0.25 mM DSS, 10% D2O on a Bruker AVANCE III 800-MHz (^1H) spectrometer equipped with a room temperature probe. Free induction decays were transformed and analyzed in Topspin (Bruker Biospin) and the aromatic region assigned.

[5] = biological target: T1, E.coli β-clamp (Escherichia coli, UniProt P0A988); assay: Microscale thermophoresis (MST) β-clamp binding; conditions: cell penetrating peptides; MST buffer with 2% fetal bovine serum; initial in vitro binding experiments, bounds given; read-out: KD for the β-clamp (MST)
T1 construct: made in house
Experimental: Purified E.coli β-clamp ([49]) was labeled using the RED-Maleimide Labelling Kit (NanoTemper Technologies, GmbH) according to the manufacturer's instructions applying a concentration of 20 μM protein at room temperature. The ligands, cell penetrating APIM-peptides, were dissolved and diluted in supplemented Microscale thermophoresis (MST) buffer (50 mM Tris–HCl pH 7.5, 150 mM NaCl, 10 mM MgCl2) with 2% fetal bovine serum and incubated for 10 min in room temperature. Series of 1:1 dilutions (16×), producing ligand concentrations ranging from 500 μM to 15 nM, were made. Each ligand solution was further diluted 1:1 with fluorescent labeled β-clamp (diluted in MST buffer, 3 nM) and incubated for 10 min. Fluorescence was measured for each protein-ligand sample using a Monolith NT.115 instrument (20% MST power and 100% LED power) and Monolith NT Standard Treated Capillaries (both NanoTemper Technologies, GmbH). To calculate the KD’s, fluorescence signals were plotted and analyzed using the supplemented software (NT Analysis software version 1.5.41 and MO.affinity analysis version 2.2.4, NanoTemper Technologies). Denaturation with SD-buffer (4% sodium dodecyl sulphate and 40 mM DTT) and re-measurement of total fluorescence confirmed that the observed change in fluorescence was due to ligand binding event.

[6] = system: E. coli BL21; type: cell-based, Escherichia coli; conditions: Mueller-Hinton Broth, 5 × 10^5 CFU/ml, 24 h, 37°C; average of ≥3 independent biological experiments
Experimental: as §1

[7] = system: E. coli MG1655; type: cell-based, Escherichia coli; conditions: Mueller-Hinton Broth, 5 × 10^5 CFU/ml, 24 h, 37°C; average of ≥3 independent biological experiments
Experimental: as §1

[8] = system: S.epidermidis (MRSE); type: cell-based, Staphylococcus epidermidis; conditions: Mueller-Hinton Broth, 5 × 10^5 CFU/ml, 24 h, 37°C; average of ≥3 independent biological experiments
Experimental: as §1

T1 sequence (P0A988 whole entry): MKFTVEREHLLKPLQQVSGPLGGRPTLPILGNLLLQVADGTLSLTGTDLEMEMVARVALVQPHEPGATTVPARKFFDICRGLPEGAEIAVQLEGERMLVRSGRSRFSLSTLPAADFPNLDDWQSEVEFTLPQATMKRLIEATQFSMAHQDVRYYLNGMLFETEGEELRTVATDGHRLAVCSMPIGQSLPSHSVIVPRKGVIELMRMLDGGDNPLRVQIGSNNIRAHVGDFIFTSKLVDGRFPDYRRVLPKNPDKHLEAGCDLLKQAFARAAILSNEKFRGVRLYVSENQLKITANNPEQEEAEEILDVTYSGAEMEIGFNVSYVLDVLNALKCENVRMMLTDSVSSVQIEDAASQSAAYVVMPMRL

## O=C(O)c1cn(C2CC2)c2cc(N3CCNCC3)c(F)cc2c1=O [Ciprofloxacin, reference compound]
[1]; Staphylococcus aureus, ATCC29213, Mueller-Hinton Broth, 5 × 10^5 CFU/ml, 24 h, 37°C, visible growth, same result in three biological replicates (n = 3), read-out: Minimal Inhibitory Concentration (MIC) S.aureus ATCC 29213
  MIC: 0.5 µg/mL (≈ 1.51 µM)
[1]; molar form of the μg/ml MIC (RWLVK MW = 3674 Da, ciprofloxacin MW = 313 Da), n = 3
  Minimal Inhibitory Concentration (MIC) S.aureus ATCC 29213: 1.5 µM
[2]; Staphylococcus aureus, FDA486, Mueller-Hinton Broth, 5 × 10^5 CFU/ml, 24 h, 37°C, visible growth, read-out: Minimal Inhibitory Concentration (MIC) S.aureus FDA486
  MIC: 0.25 µg/mL (≈ 0.754 µM)
[2]; molar form of the μg/ml MIC
  Minimal Inhibitory Concentration (MIC) S.aureus FDA486: 0.8 µM

## Ac-EQVELEFD [Pol III peptide]
[3]
  Kd: ~2 µM

## Ac-MDAWLVKW
[4]
  Binding to β-clamp by 1D 1H NMR (line broadening, chemical shift or intensity change): could not detect any binding

## Ac-MDRALVKWKKKRKIRRRRRRRRRRR-NH2 [RALVK]
[5]
  Kd: > 750 µM
[6]
  Minimal Inhibitory Concentration (MIC) E. coli BL21: 5 µM
[7]
  Minimal Inhibitory Concentration (MIC) E. coli MG1655: 9 µM
[8]
  Minimal Inhibitory Concentration (MIC) S.epidermidis (MRSE): 3 µM
